Data on 20 compounds can be found in patent US10219516B2, “Molecules having pesticidal utility, and intermediates, compositions, and processes, related thereto” (priority 2015, dated 2019).

Assay [1] relates to Beet Armyworm (Spodoptera exigua, LAPHEG). The experiment in a line: Bioassay on Beet Armyworm (BAW), 128-well diet tray assay. Type of assay: in vivo. Here is the method: (§1) Certain molecules disclosed in this document were tested against BAW and CL using procedures described in the following examples. In the reporting of the results, the “BAW & CL Rating Table” was used (See Table Section).
Bioassays on BAW were conducted using a 128-well diet tray assay. One to five second instar BAW larvae were placed in each well (3 mL) of the diet tray that had been previously filled with approximately 1.5 mL of artificial diet to which 50 μg/cm^2 of the test molecule (dissolved in 50 μL of 90:10 acetone-water mixture) had been applied (to each of eight wells) and then allowed to dry. Trays were covered with a clear self-adhesive cover, vented to allow gas exchange, and held at 25° C., 14:10 light-dark for five to seven days. Percent mortality was recorded for the larvae in each well; activity in the eight wells was then averaged. The results are indicated in the table entitled “Table ABC: Biological Results” (See Table Section).

Assay [2] has as its system Cabbage Looper (Trichoplusia ni, TRIPNI). The experiment in a line: Bioassay on Cabbage Looper (CL), 128-well diet tray assay. Type of assay: in vivo. The note with it: Trichoplusia ni. As for the experimental part: as §1
Bioassays on CL were conducted using a 128-well diet tray assay. one to five second instar CL larvae were placed in each well (3 mL) of the diet tray that had been previously filled with 1 mL of artificial diet to which 50 μg/cm^2 of the test molecule (dissolved in 50 μL of 90:10 acetone-water mixture) had been applied (to each of eight wells) and then allowed to dry. Trays were covered with a clear self-adhesive cover, vented to allow gas exchange, and held at 25° C., 14:10 light-dark for five to seven days. Percent mortality was recorded for the larvae in each well; activity in the eight wells was then averaged. The results are indicated in the table entitled “Table ABC: Biological Results” (See Table Section).

The mark [3] stands for this setting: Species BAW (Beet Armyworm), read-out: BAW (Biological Results, rating).
Where [4] appears, read: Species CL (Cabbage Looper), read-out: CL (Biological Results, rating).
[5] abbreviates: Beet Armyworm, 128-well diet tray assay, read-out: BAW rating.
The mark [6] stands for this setting: Cabbage Looper, 128-well diet tray assay, read-out: CL rating.

Molecules are shown by their SMILES. Like-named read-outs stand apart in the source and are kept apart here.

With `O=C(Nc1ccc(Cl)c(C(=S)Nc2ccc(F)cc2)c1)[C@H]1[C@H](c2cc(Cl)cc(Cl)c2)C1(Cl)Cl` (relative stereo) [F113, trans-2,2-Dichloro-N-(4-chloro-3-((4-fluorophenyl)carbamothioyl)phenyl)-3-(3,5-dichlorophenyl)cyclopropane-1-carboxamide], the pest or weed control at 50 µg/cm2 in assay [1] (setting [3]) and in assay [2] (setting [4]) was 50 to 100% each time.
Take `O=C(Nc1ccc(-c2ncco2)cc1)c1cc(NC(=O)[C@H]2[C@H](c3cc(Cl)cc(Cl)c3)C2(Cl)Cl)ccc1Cl` (relative stereo) [F446, trans-2-Chloro-5-(2,2-dichloro-3-(3,5-dichlorophenyl)cyclopropane-1-carboxamido)-N-(4-(oxazol-2-yl)phenyl)benzamide]: the pest or weed control at 50 µg/cm2 in assay [1] (setting [5]) and in assay [2] (setting [6]) was 50 to 100% each time.
Regarding `O=C(Nc1ccc2c(ccn2Cc2ccccc2)c1)c1cc(NC(=O)[C@H]2[C@H](c3cc(Cl)cc(Cl)c3)C2(Cl)Cl)ccc1Cl` (relative stereo) [F458, N-(1-Benzyl-1H-indol-5-yl)-2-chloro-5-(trans)-(2,2-dichloro-3-(3,5-dichlorophenyl)cyclopropane-1-carboxamido)benzamide], the pest or weed control at 50 µg/cm2 in assay [1] (setting [5]) and in assay [2] (setting [6]) was 50 to 100% in each case.
As to `Nc1c(F)ccc(NC(=O)c2cc(NC(=O)C3C(c4cc(F)c(F)c(F)c4)C3(Cl)Cl)ccc2Cl)c1F` (stereo not drawn) [F627, N-(3-Amino-2,4-difluorophenyl)-2-chloro-5-(2,2-dichloro-3-trans-(3,4,5-trifluorophenyl)cyclopropane-1-carboxamido)benzamide], the pest or weed control at 50 µg/cm2 in assay [1] (setting [5]) and in assay [2] (setting [6]) was 50 to 100% each time.
Consider `CN(C(=S)c1cc(NC(=O)[C@H]2[C@H](c3cc(Cl)cc(Cl)c3)C2(Cl)Cl)ccc1Cl)c1ccc(F)cc1` (relative stereo) [F112, trans-2,2-Dichloro-N-(4-chloro-3-((4-fluorophenyl)(methyl)carbamothioyl)phenyl)-3-(3,5-dichlorophenyl)cyclopropane-1-carboxamide], for which the pest or weed control at 50 µg/cm2 in assay [1] (setting [3]) and in assay [2] (setting [4]) was 50 to 100% in each case.
Regarding `N#Cc1ccc(NC(=O)c2cc(NC(=O)[C@H]3[C@H](c4cc(Cl)cc(Cl)c4)C3(Cl)Cl)ccc2Cl)c(F)c1` (relative stereo) [F144, trans-2-Chloro-N-(4-cyano-2-fluorophenyl)-5-(2,2-dichloro-3-(3,5-dichlorophenyl)cyclopropane-1-carboxamido)benzamide], the pest or weed control at 50 µg/cm2 in assay [1] (setting [3]) and in assay [2] (setting [4]) was 50 to 100% throughout.
For the compound `Cc1cc(F)cc(C)c1NC(=O)c1cc(NC(=O)[C@H]2[C@H](c3cc(Cl)cc(Cl)c3)C2(Cl)Cl)ccc1Cl` (relative stereo) [PF43, trans-2-Chloro-5-(2,2-dichloro-3-(3,5-dichlorophenyl)cyclopropane-1-carboxamido)-N-(4-fluoro-2,6-dimethylphenyl)benzamide], the pest or weed control at 50 µg/cm2 in assay [1] (setting [5]) and in assay [2] (setting [6]) was 50 to 100% in each case.
Regarding `Cc1cc([C@H]2[C@H](C(=O)Nc3ccc(Cl)c(C(=O)Nc4c(F)cccc4F)c3)C2(Cl)Cl)cc(Cl)c1Cl` (relative stereo) [F125, trans-2-Chloro-5-(2,2-dichloro-3-(3,4-dichloro-5-methylphenyl)cyclopropane-1-carboxamido)-N-(2,6-difluorophenyl)benzamide], the pest or weed control at 50 µg/cm2 in assay [1] (setting [3]) and in assay [2] (setting [4]) was 50 to 100% in each case.
`N#Cc1ccc(NC(=O)c2cc(NC(=O)[C@H]3[C@H](c4cc(Cl)cc(Cl)c4)C3(Cl)Cl)ccc2Cl)cc1` (relative stereo) [F5, trans-2-Chloro-N-(4-cyanophenyl)-5-(2,2-dichloro-3-(3,5-dichlorophenyl)cyclopropane-1-carboxamido)benzamide]: the pest or weed control at 50 µg/cm2 in assay [1] (setting [3]) and in assay [2] (setting [4]) was 50 to 100% throughout.
Take `O=C(Cc1ccccc1)Nc1ccc(NC(=O)c2cc(NC(=O)[C@H]3[C@H](c4cc(Cl)cc(Cl)c4)C3(Cl)Cl)ccc2Cl)cc1` (relative stereo) [PF28, trans-2-Chloro-5-(2,2-dichloro-3-(3,5-dichlorophenyl)cyclopropane-1-carboxamido)-N-(4-(2-phenylacetamido)phenyl)benzamide]: the pest or weed control at 50 µg/cm2 in assay [1] (setting [5]) and in assay [2] (setting [6]) was 50 to 100% each time.
For the compound `CN(C(=O)c1cc(NC(=O)[C@H]2[C@H](c3cc(Cl)c(Cl)c(Cl)c3)C2(Cl)Cl)ccc1F)c1ccc(C#N)cc1F` (relative stereo) [F105, trans-N-(4-Cyano-2-fluorophenyl)-5-(2,2-dichloro-3-(3,4,5-trichlorophenyl)cyclopropane-1-carboxamido)-2-fluoro-N-methylbenzamide], the pest or weed control at 50 µg/cm2 in assay [1] (setting [3]) and in assay [2] (setting [4]) was 50 to 100% each time.
On to `O=C(Nc1cc(C(F)(F)F)[nH]n1)c1cc(NC(=O)[C@H]2[C@H](c3cc(Cl)cc(Cl)c3)C2(Cl)Cl)ccc1Cl` (relative stereo) [PF138, trans-2-Chloro-5-(2,2-dichloro-3-(3,5-dichlorophenyl)cyclopropane-1-carboxamido)-N-(5-(trifluoromethyl)-1H-pyrazol-3-yl)benzamide], for which the pest or weed control at 50 µg/cm2 in assay [1] (setting [5]) and in assay [2] (setting [6]) was 50 to 100% in each case.
Turning to `O=C(Nc1c(F)cccc1F)c1cc(NC(=O)[C@H]2[C@H](c3cc(Cl)c(F)c(Cl)c3)C2(Cl)Cl)ccc1Cl` (relative stereo) [F98, trans-2-Chloro-5-(2,2-dichloro-3-(3,5-dichloro-4-fluorophenyl)cyclopropane-1-carboxamido)-N-(2,6-difluorophenyl)benzamide], the pest or weed control at 50 µg/cm2 in assay [1] (setting [3]) and in assay [2] (setting [4]) was 50 to 100% throughout.
As to `CN(C(=O)c1cc(NC(=O)[C@H]2[C@H](c3ccccc3)C2(Cl)Cl)ccc1Cl)c1ccc(F)cc1` (relative stereo) [F110, trans-2-Chloro-5-(2,2-dichloro-3-phenylcyclopropane-1-carboxamido)-N-(4-fluorophenyl)-N-methylbenzamide], the pest or weed control at 50 µg/cm2 in assay [1] (setting [3]) and in assay [2] (setting [4]) was 50 to 100% throughout.
In the case of `Cc1cc(N(C)C(=O)OC(C)(C)C)ccc1N(C)C(=O)c1cc(NC(=O)[C@H]2[C@H](c3cc(Cl)cc(Cl)c3)C2(Cl)Cl)ccc1Cl` (relative stereo) [F220, trans-tert-Butyl-(4-(2-chloro-5-(2,2-dichloro-3-(3,5-dichlorophenyl)cyclopropane-1-carboxamido)-N-methylbenzamido)-3-methylphenyl)(methyl)carbamate], the pest or weed control at 50 µg/cm2 in assay [1] (setting [3]) and in assay [2] (setting [4]) was 50 to 100% each time.
Regarding `COc1ccc([C@H]2[C@H](C(=O)Nc3ccc(Cl)c(C(=O)Nc4ccc(F)cc4)c3)C2(Cl)Cl)cc1` (relative stereo) [PF65, trans-2-Chloro-5-(2,2-dichloro-3-(4-methoxyphenyl)cyclopropane-1-carboxamido)-N-(4-fluorophenyl)benzamide], the pest or weed control at 50 µg/cm2 in assay [1] (setting [5]) and in assay [2] (setting [6]) was 50 to 100% each time.
`Cc1cc(NS(C)(=O)=O)ccc1NC(=O)c1cc(NC(=O)C2C(c3cc(Cl)cc(Cl)c3)C2(Cl)Cl)ccc1Cl` (stereo not drawn) [F487, 2-chloro-5-(trans)-2,2-dichloro-3-(3,5-dichlorophenyl)cyclopropane-1-carboxamido)-N-(2-methyl-4-(methylsulfonamido)phenyl)benzamide]: the pest or weed control at 50 µg/cm2 in assay [1] (setting [5]) and in assay [2] (setting [6]) was 50 to 100% throughout.
For `O=C(Nc1ccc(F)cc1F)c1cc(NC(=O)[C@H]2[C@H](c3cc(Cl)cc(Br)c3)C2(Cl)Cl)ccc1Cl` (relative stereo) [PF39, 5-(trans-3-(3-Bromo-5-chlorophenyl)-2,2-dichlorocyclopropane-1-carboxamido)-2-chloro-N-(2,4-difluorophenyl)benzamide], the pest or weed control at 50 µg/cm2 in assay [1] (setting [5]) and in assay [2] (setting [6]) was 50 to 100% each time.
As for `O=C(Nc1ncc(F)cc1F)c1cc(NC(=O)[C@H]2[C@H](c3cc(Cl)cc(C(F)F)c3)C2(Cl)Cl)ccc1Cl` (relative stereo) [F584, 2-Chloro-5-(trans-2,2-dichloro-3-(3-chloro-5-(difluoromethyl)phenyl)cyclopropane-1-carboxamido)-N-(3,5-difluoropyridin-2-yl)benzamide], the pest or weed control at 50 µg/cm2 in assay [1] (setting [5]) and in assay [2] (setting [6]) was 50 to 100% in each case.
Regarding `CNc1cc(NC(=O)c2cc(NC(=O)[C@H]3[C@H](c4cc(Cl)cc(Cl)c4)C3(Cl)Cl)ccc2Cl)ccc1C` (relative stereo) [F207, trans-2-Chloro-5-(2,2-dichloro-3-(3,5-dichlorophenyl)cyclopropane-1-carboxamido)-N-(4-methyl-3-(methylamino)phenyl)benzamide], the pest or weed control at 50 µg/cm2 in assay [1] (setting [3]) and in assay [2] (setting [4]) was 50 to 100% throughout.
